A word on the IC50: it is the point on the concentration scale where inhibition reaches its midpoint.

Where “and” joins values, the source holds several entries; their conditions need not be identical. Equal values may be shown once. Read-outs that look alike come from different tables or passages of the source.

The source of these data is patent US20110034454A1, “MORPHOLINO PYRIMIDINE DERIVATIVES AND THEIR USE IN THERAPY” (priority 2006, published 2011).

Assay [1] has as its system phosphorylation of Serine 473 in Akt, MDA-MB-468 cells. Kind of assay: In vitro phospho-Ser473 Akt assay. As to conditions: Homo sapiens, MDA-MB-468, Test (c), mean of five occasions, read-out: IC50 versus Serine 473 in Akt, mean value. Format: cell-based. The procedure:
(c) In Vitro Phospho-Ser473 Akt Assay
This assay determines the ability of test compounds to inhibit phosphorylation of Serine 473 in Akt as assessed using Acumen Explorer technology (Acumen Bioscience Limited), a plate reader that can be used to rapidly quantitate features of images generated by laser-scanning.
A MDA-MB-468 human breast adenocarcinoma cell line (LGC Promochem, Teddington, Middlesex, UK, Catalogue No. HTB-132) was routinely maintained at 37° C. with 5% CO2 up to a confluency of 70-90% in DMEM containing 10% heat-inactivated FCS and 1% L-glutamine.
For the assay, the cells were detached from the culture flask using ‘Accutase’ (Innovative Cell Technologies Inc., San Diego, Calif., USA; Catalogue No. AT104) using standard tissue culture methods and resuspended in media to give 1.7×10^5 cells per mL. Aliquots (90 μl) were seeded into each of the inner 60 wells of a black Packard 96 well plate (PerkinElmer, Boston, Mass., USA; Catalogue No. 6005182) to give a density of ˜15000 cells per well. […]
No. 10010015). […] An aliquot of PBS (50 μl) was added to each well and the plates were sealed with black plate sealers and the fluorescence signal was detected and analysed.
Fluorescence dose response data obtained with each compound were analysed and the degree of inhibition of Serine 473 in Akt was expressed as an IC50 value.

For a further assay, the target named is T1, p110α Type Ia human PI3K (Homo sapiens, UniProt P42336).
T1 construct: full length DNA of each of the p110α, p110β and p110δ Type Ia human PI3K p110 isoforms; 6-His; made in house
Kind of assay: In vitro PI3K enzyme assay (AlphaScreen), p110α. Format: biochemical. As to conditions: Test (b). An excerpt: (b) In Vitro PI3K Enzyme Assay
The assay used AlphaScreen technology (Gray et al., Analytical Biochemistry, 2003, 313: 234-245) to determine the ability of test compounds to inhibit phosphorylation by recombinant Type I PI3K enzymes of the lipid PI(4,5)P2.
DNA fragments encoding human PI3K catalytic and regulatory subunits were isolated from cDNA libraries using standard molecular biology and PCR cloning techniques. The selected DNA fragments were used to generate baculovirus expression vectors. In particular, full length DNA of each of the p110α, p110β and p110δ Type Ia human PI3K p110 isoforms (EMBL Accession Nos. HSU79143, S67334, Y10055 for p110 α, p110β and p110δ respectively) were sub-cloned into a pDEST10 vector (Invitrogen Limited, Fountain Drive, Paisley, UK). The vector is a Gateway-adapted version of Fastbac1 containing a 6-His epitope tag. A truncated form of Type Ib human PI3K p110γ isoform corresponding to amino acid residues 144-1102 (EMBL Accession No. X8336A) and the full length human p85α regulatory subunit (EMBL Accession No. HSP13KIN) were also sub-cloned into pFastBac1 vector containing a 6-His epitope tag. The Type Ia p110 constructs were co-expressed with the p85α regulatory subunit. […]
20 hours at room temperature in the dark. The resultant signals arising from laser light excitation at 680 nm were read using a Packard AlphaQuest instrument. […]
A general note: In Alpha technology, singlet oxygen from a donor bead excites a nearby acceptor bead.

The next assay concerns the target T2, recombinant mTOR (Homo sapiens, UniProt P42345).
T2 construct: FLAG; made in house
Kind of assay: In vitro mTOR kinase assay (AlphaScreen). The class given is biochemical. The settings on record: Test (a). The procedure: (a) In Vitro mTOR Kinase Assay
The assay used AlphaScreen technology (Gray et al., Analytical Biochemistry, 2003, 313: 234-245) to determine the ability of test compounds to inhibit phosphorylation by recombinant mTOR.
The HEK293 FLAG-tagged mTOR (1362-2549) stable cell line was routinely maintained at 37° C. with 5% CO2 up to a confluency of 70-90% in Dulbecco's modified Eagle's growth medium (DMEM; Invitrogen Limited, Paisley, UK Catalogue No. 41966-029) containing 10% heat-inactivated foetal calf serum (FCS; Sigma, Poole, Dorset, UK, Catalogue No. F0392), 1% L-glutamine (Gibco, Catalogue No. 25030-024) and 2 mg/ml Geneticin
(G418 sulfate; Invitrogen Limited, UK Catalogue No. 10131-027). […]
Each reaction was stopped by the addition of 10 μl of a mixture of EDTA (50 mM), bovine serum albumin (BSA; 0.5 mg/mL) and Tris-HCl pH7.4 buffer (50 mM) containing p70 S6 Kinase (T389) 1A5 Monoclonal Antibody (Cell Signalling Technology, Catalogue No. 9206B) and AlphaScreen Streptavidin donor and Protein A acceptor beads (200 ng; Perkin Elmer, Catalogue No. 6760002B and 6760137R respectively) were added and the assay plates were left for about 20 hours at room temperature in the dark. The resultant signals arising from laser light excitation at 680 nm were read using a Packard Envision instrument. […]
mTOR enzyme inhibition for a given test compound was expressed as an IC50 value.

T1 sequence (P42336 whole entry, canonical isoform): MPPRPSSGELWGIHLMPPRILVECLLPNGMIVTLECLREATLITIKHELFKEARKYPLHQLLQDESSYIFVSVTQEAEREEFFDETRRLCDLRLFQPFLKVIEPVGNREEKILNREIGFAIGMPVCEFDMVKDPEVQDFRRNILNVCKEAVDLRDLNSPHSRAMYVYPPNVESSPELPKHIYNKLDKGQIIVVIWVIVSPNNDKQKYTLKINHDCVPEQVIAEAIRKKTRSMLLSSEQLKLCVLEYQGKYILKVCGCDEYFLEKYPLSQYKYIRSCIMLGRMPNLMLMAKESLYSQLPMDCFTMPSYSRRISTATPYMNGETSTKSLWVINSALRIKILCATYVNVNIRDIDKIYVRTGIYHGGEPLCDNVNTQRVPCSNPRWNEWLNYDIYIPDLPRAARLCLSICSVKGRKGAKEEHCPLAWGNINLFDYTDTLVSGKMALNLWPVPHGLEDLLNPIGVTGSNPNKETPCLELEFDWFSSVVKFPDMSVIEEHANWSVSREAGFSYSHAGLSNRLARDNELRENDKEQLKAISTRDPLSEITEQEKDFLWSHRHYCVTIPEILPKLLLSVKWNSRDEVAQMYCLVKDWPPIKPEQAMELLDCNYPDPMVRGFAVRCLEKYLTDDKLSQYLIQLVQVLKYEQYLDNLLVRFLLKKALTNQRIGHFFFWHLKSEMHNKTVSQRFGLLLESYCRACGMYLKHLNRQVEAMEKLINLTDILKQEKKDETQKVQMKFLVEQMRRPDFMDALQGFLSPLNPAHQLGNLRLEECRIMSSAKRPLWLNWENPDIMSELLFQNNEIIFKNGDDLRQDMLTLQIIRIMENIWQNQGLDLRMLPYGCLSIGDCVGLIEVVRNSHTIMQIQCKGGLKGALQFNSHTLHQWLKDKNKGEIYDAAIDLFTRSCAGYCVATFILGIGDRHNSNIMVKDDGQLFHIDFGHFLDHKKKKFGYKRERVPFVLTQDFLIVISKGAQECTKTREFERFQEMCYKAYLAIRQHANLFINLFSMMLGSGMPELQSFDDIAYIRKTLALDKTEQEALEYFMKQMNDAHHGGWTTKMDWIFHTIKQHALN
T1 sequence (P27986 whole entry partner, canonical isoform): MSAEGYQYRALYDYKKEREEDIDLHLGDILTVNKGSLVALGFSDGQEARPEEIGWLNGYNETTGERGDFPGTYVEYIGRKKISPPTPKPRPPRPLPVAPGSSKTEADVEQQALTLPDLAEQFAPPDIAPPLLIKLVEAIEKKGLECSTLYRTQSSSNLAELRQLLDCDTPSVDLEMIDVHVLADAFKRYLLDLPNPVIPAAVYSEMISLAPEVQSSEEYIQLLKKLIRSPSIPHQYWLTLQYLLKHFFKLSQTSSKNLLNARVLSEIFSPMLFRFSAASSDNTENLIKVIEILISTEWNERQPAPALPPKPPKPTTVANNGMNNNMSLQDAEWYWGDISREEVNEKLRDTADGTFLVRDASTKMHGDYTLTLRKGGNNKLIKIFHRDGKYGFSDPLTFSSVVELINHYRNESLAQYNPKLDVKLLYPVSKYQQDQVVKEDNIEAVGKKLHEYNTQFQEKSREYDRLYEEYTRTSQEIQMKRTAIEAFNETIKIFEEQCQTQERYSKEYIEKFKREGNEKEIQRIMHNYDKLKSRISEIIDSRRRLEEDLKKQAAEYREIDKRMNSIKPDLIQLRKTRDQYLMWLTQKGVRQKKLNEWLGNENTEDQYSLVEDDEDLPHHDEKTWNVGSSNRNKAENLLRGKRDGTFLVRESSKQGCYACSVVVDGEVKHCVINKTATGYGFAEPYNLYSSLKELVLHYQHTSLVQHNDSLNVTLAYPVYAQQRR
T2 sequence (P42345 1362-2549): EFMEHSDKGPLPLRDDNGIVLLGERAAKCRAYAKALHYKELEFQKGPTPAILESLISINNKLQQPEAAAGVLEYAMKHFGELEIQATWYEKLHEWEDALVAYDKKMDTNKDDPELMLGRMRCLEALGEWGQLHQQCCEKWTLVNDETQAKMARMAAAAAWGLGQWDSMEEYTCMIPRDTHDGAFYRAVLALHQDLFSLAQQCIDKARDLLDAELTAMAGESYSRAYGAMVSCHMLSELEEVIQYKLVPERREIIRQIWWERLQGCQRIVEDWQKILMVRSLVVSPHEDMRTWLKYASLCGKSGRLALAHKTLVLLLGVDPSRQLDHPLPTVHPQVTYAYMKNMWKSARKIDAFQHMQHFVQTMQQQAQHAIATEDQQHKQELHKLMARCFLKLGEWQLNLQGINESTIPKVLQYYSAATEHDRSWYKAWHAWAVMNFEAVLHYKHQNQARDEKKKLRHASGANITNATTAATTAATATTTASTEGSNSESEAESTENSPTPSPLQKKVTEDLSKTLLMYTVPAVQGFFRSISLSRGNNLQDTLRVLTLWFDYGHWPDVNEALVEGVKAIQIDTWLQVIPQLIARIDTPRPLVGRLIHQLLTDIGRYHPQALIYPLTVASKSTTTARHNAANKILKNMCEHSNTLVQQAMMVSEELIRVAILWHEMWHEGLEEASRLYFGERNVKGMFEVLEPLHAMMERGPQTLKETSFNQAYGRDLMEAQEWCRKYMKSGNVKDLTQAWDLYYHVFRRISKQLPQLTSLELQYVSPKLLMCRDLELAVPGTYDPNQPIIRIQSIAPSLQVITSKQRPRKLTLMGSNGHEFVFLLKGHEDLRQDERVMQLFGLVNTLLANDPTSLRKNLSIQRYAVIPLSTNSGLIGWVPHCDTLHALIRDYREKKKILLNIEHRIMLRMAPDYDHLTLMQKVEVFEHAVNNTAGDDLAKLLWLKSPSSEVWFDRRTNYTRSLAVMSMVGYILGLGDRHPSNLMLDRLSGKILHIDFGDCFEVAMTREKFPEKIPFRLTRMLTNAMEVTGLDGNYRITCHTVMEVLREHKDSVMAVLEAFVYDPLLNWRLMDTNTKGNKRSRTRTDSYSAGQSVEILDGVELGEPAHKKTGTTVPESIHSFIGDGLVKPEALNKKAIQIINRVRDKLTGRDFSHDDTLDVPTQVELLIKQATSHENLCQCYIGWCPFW

As to `O=S(=O)(Cc1cc(N2CCOCC2)nc(-c2ccccn2)n1)c1ccccc1` [Example 44, 4-(benzenesulfonylmethyl)-6-morpholin-4-yl-2-pyridin-2-yl-pyrimidine], the IC50 in assay [1] is 8.84 µM.

`O=S(=O)(CCc1cccc(C(F)(F)F)c1)Cc1cc(N2CCOCC2)nc(-c2ccccn2)n1` [Example 65, 4-morpholin-4-yl-2-pyridin-2-yl-6-[2-[3-(trifluoromethyl)phenyl]ethylsulfonylmethyl] pyrimidine]: the concentration for half-maximal inhibition (IC50) is 6.8 µM at p110α Type Ia human PI3K (mean of three occasions, read-out: IC50 versus p110α Type Ia human PI3K, mean value); 1.9 µM and 13 µM and 5.7 µM on p110α Type Ia human PI3K (single occasions, read-out: IC50 versus p110α Type Ia human PI3K); 5.4 µM at recombinant mTOR (mean of three occasions, read-out: IC50 versus mTOR kinase, mean value); 3.9 µM and 4.1 µM and 8.2 µM at recombinant mTOR (single occasions, read-out: IC50 versus mTOR kinase).
